Patent publication US11311010B2, “Lignin biomaterial as agricultural drug carrier” (Max-Planck-Gesellschaft zur Förderung der Wissenschaften …, priority 2016, dated 2022)
Values joined by “and” are separate entries in the source; they are usually repeats but may differ in a detail not shown here. Equal entries are not always repeated.

What was measured:
[1] = tested on: Phaeomoniella chlamydospora; assay: In vitro test in 96-well plates (spore germination, optical density); assay type: cell-based; settings: pos. control 50 μg, Pch, well row E
Method: (§1) The lignin particle-solutions were pipetted in various concentrations (1, 5 and 10 μg/mL) into the 96 wells. Several differing nanoparticles were tested (see FIGS. 10 and 12). Afterwards a spore suspension (in minimal medium) of Esca associated fungi, each fungus separately in three wells, was added to the lignin-particle solution. The final volume was 200 μl per well and 500 spores in those 200 μl (means 2,500 spores/mL). The 96-well plate was incubated at 26° C. for 48 h on a shaker with 120 rpm. The optical density was determined after 24 and 48 h using a lab-bench plate reader (BioRad) at a wavelength of 600 nm.
(§2) […] The optical density of the medium without spores was also measured.
(§3) The results of three replicates were afterwards combined to calculate the average value of all samples (see also the standard deviation in FIG. 10).
(§4) The numbers 1 to 10 and the letters A to H are the labeling of the 96-well plate as well as the grid of the test system. The Numbers 66 to 84 are explained as the tested Lignin-particle solutions, they differ in their composition and fungicide concentration (see also Table 2). The optical density is […] to the activity of the fungicide. […] Therefore higher values of the optical density stand for more sporulation and fungal growths and less biological activity of the lignin formulation (e.g., in A1, A2). A low optical density is characteristic for a high fungal toxicity and bioactivity (see in A5 and A6).

[2] = tested on: Phaeoacremonium aleophilum; assay: as above; assay type: cell-based; settings: pos. control 50 μg, Pal, well row F
Method: as §1, §2, §3, §4

## CP(=O)(O)CCC(N)C(=O)O (stereo not shown) [Glufosinat-Ammonium]
[1]; first plate block
  optical density measured at 600 nm: 0.192 and 0.180 and 0.200
[1]; second plate block
  optical density measured at 600 nm: 0.201 and 0.192 and 0.203
[2]; first plate block
  optical density measured at 600 nm: 0.220 and 0.212 and 0.206
[2]; second plate block
  optical density measured at 600 nm: 0.228 and 0.219 and 0.204
